In test [1] the test system is growth hormone (GH) secretion. Description: Growth Hormone Inhibition In Rats (pentobarbital-stimulated GH secretion, serum GH by radioimmunoassay). It counts as in vivo. Particulars: male rats; for % Inhibition of GH release (as compared to control): compared to saline control; for Serum Growth Hormone Conc. Mean ± SEM: sodium pentobarbital 4 mg/rat I.P., 20 minutes after dosing. On the procedure: A. Growth Hormone Inhibition In Rats:
This test is a modification of the method of P. Brazeau et al. Endocrinology, 94, 184 (1974). Male rats (weighing 100-110 g.) are divided into three groups of eight rats each. Each rat is administered sodium pentobarbital at a dose of 4 mg/rat (I.P.) to stimulate growth hormone (GH) secretion. Simultaneously, one group of rats receives the test compound (S.C.); the second group receives somatostatin (S.C.); and the third group (control) receives saline (S.C.). Twenty-minutes later, the animals are decapitated and blood samples are collected. The serum concentration of growth hormone (GH) is determined by radioimmunoassay. The mean GH concentration (± standard error of the mean) is calculated for each group. The percent inhibition of GH release (as compared to saline controls) is then calculated for the test compound and for somatostatin. When tested as above-described, the peptide of Example 4 (D-Ala^2, Ala^5, D-Trp^8, Val^10, D-Phe^11 -Somatostatin) representative of the peptides of Formula III, gave the results set forth below in Table I: […]

The subject of another test is serum insulin. Description: Insulin Inhibition In Dogs (I.V. infusion, L-alanine stimulation, serum insulin by radioimmunoassay). It counts as in vivo, dog. On the procedure:
(§1) B. Insulin and Glucagon Inhibition In Dogs:
(§2) A normal dog is fasted overnight. An intravenous (I.V.) infusion of the test compound (dissolved in saline) is begun. Thirty minutes thereafter an additional infusion of L-alanine (dissolved in saline) is begun and is continued for a total of 15 minutes so that a total dose of about 1 mmole of L-alanine per kg. body weight is given. Infusion of the test compound is continued for an additional 15 minute period.
(§3) Blood samples are taken periodically before (at -20, -10 and -1 minutes) and after (5, 10, 15, 30, 35, 40, 45, 50, 60, 90, 120 and 150 minutes) the start of the infusion of the test compound. The serum insulin and serum glucagon concentrations in the blood are determined by radioimmunoassay. A plot is made of the glucagon and insulin concentrations versus time. The plot obtained from the test compound is compared to plots obtained from somatostatin and saline (controls) in similar experiments.
(§4) Infusion of L-alanine (in the absence of somatostatin or active test compound) causes an abrupt increase in serum insulin and glucagon concentrations. The concentrations return to basal levels after the L-alanine infusion is terminated.

The next test deals with serum glucagon. Nature of the test: Glucagon Inhibition In Dogs (I.V. infusion, L-alanine stimulation, serum glucagon by radioimmunoassay). The class given is in vivo, dog. The protocol:
as §1, §2, §3, §4

[2] abbreviates: dog, in the presence of L-alanine.
Where [3] appears, read: dog, infusion alone (no L-alanine).
The mark [4] stands for this setting: normal fasted dog, I.V. infusion 0.237 μg/Kg./min, L-alanine infusion.

From patent publication US4199500A, “Peptides related to somatostatin” (Eli Lilly and Company, priority 1978, dated 1980) come the findings set out here.

Positions of bridges follow the written chain, without caps; N, C: chain ends. Non-standard residues stand in square brackets, D forms with d. Residues, ends and D or L forms follow the SMILES beside them.

`C[C@H](N)C(=O)NCC(=O)N[C@H]1CSSC[C@@H](C(=O)O)NC(=O)[C@H](CO)NC(=O)[C@H]([C@@H](C)O)NC(=O)[C@H](Cc2ccccc2)NC(=O)[C@H]([C@@H](C)O)NC(=O)[C@H](CCCCN)NC(=O)[C@H](Cc2c[nH]c3ccccc23)NC(=O)[C@H](Cc2ccccc2)NC(=O)[C@H](Cc2ccccc2)NC(=O)[C@H](CC(N)=O)NC(=O)[C@H](CCCCN)NC1=O` [Somatostatin]: in test [1] (dose 2 mg/kg S.C.), the “% Inhibition of GH release (as compared to control)” value (shortened to “% Inhibition of GH release”) is recorded as 63% and the Serum Growth Hormone Conc. Mean ± SEM stood at 105 ± 69 ng/mL. In addition, the “% Inhibition of GH release” value in test [1] (dose 50 mg/kg S.C.) is listed as 93%. For the same molecule, the “effect on increase in insulin concentration induced by L-alanine” value with serum insulin (setting [2]) is reported as “inhibits the increase”. Further, the “effect on basal serum concentration of insulin” value with serum insulin (setting [3]) is “causes a decrease”. For the same molecule, the “effect on increase in glucagon concentration induced by L-alanine” value in the test on serum glucagon (setting [2]) is “inhibits the increase”. The “effect on basal serum concentration of glucagon” value in the test on serum glucagon (setting [3]) is recorded as “causes a decrease”.
On to `CC(C)[C@@H]1NC(=O)[C@H](CCCCN)NC(=O)[C@@H](Cc2c[nH]c3ccccc23)NC(=O)[C@H](Cc2ccccc2)NC(=O)[C@H](Cc2ccccc2)NC(=O)[C@H](C)NC(=O)[C@H](CCCCN)NC(=O)[C@@H](NC(=O)[C@@H](C)NC(=O)[C@H](C)N)CSSC[C@@H](C(=O)O)NC(=O)[C@H](CO)NC(=O)[C@H]([C@@H](C)O)NC(=O)[C@@H](Cc2ccccc2)NC1=O` [Example 4, L-Alanyl-D-alanyl-L-cysteinyl-L-lysyl-L-alanyl-L-phenylalanyl-L-phenylalanyl-D-tryptophyl-L-lysyl-L-valyl-D-phenyl-alanyl-L-threonyl-L-seryl-L-cysteine cyclic (3->14) disulfide] (H-A[dA]CKAFF[dW]KV[dF]TSC-OH; disulfide 3-14), for which, in test [1] (dose 2 mg/kg S.C.), the “% Inhibition of GH release” value is 7.8% and the Serum Growth Hormone Conc. Mean ± SEM was 61 ± 24 ng/mL. In test [1] (dose 50 mg/kg S.C.), the “% Inhibition of GH release” value was 66% and the Serum Growth Hormone Conc. Mean ± SEM was found to be 97 ± 39 ng/mL. The “inhibition of insulin concentration” value in the test on serum insulin (setting [4]) was “no significant inhibition”. The “inhibition of glucagon concentration” value with serum glucagon (setting [4]) is given as “no significant inhibition”.
